Several values for one entry are separate records, joined by “and”; a condition that tells them apart may be missing. Identical values can stand only once. Counter-ions that a name gives are not always drawn. Like-named read-outs stand apart in the source and are kept apart here.
How the values were obtained:
Type in all cases: biochemical
[1] = target: T1, urokinase (Homo sapiens, UniProt P00749); assay: Urokinase Indirect (Plasminogen-Linked) Assay; conditions: Table 3 column 4, simple number, unit inferred; read-out: uPA Indirect (plasminogen-linked) IC50
T1 construct: human high molecular weight urokinase; purchased American Diagnostica, Greenwich, Conn
Experimental: (ii) An indirect plasminogen-linked assay in which urokinase proteolytically activates plasminogen, forming plasmin which then cleaves a synthetic tripeptide pNA plasmin substrate.
Incubations were carried out at 22° C. for 45-60 minutes or until adequate color developed. Color qas quantitated as in the urokinase direct assay above. Parallel incubations were performed with and without plasminogen, and corrected absorbance values were obtained by subtracting values obtained without plasminogen from those obtained with plasminogen, eliminating any contribution of direct cleavage, if any, of plasmin substrate by urokinase.

[2] = target: T2, human two-chain tPA (Homo sapiens, UniProt P00750); assay: tPA Indirect (Plasminogen-Linked) Assay (tPA Direct Assay result where lower); conditions: for tPA/UPA ratio: ratio with respect to urokinase indirect plasminogen-linked IC50, larger = greater specificity for urokinase; for IC50: tPA Indirect Plasminogen-Linked Assay, in rare cases direct assay result if lower, read-out: tPA IC50
T2 construct: human two-chain tPA was substituted for urokinase; purchased American Diagnostica
Text: (iv) Both direct and plasminogen-linked pNA assays for tPA, the other mammalian plasminogen activator and the key initiator of blood clot dissolution or fibrinolysis. Since urokinase and tPA share an absolute specificity for the same peptide bond in plasminogen, urokinase inhibitors designed to block cellular invasiveness must be highly specific for urokinase over tPA in order to avoid serious thrombotic side effects secondary to undesired blockage of normal fibrinolysis. […] Spectrozyme tPA®, American Diagnostica) was substituted for urokinase substrate.

[3] = target: T3, human plasmin (Homo sapiens, UniProt P00747); assay: Plasmin Assay; conditions: for PLM/uPA ratio: ratio with respect to urokinase indirect plasminogen-linked IC50, larger = greater specificity for urokinase; for IC50: read-out: PLASMIN IC50; for inhibition at 1000 µM: read-out: PLASMIN activity observed relative to inhibitor-free controls
T3 construct: plasmin, the potent general protease produced by cleavage of plasminogen by either urokinase or tPA; purchased American Diagnostica
Experimental: (v) A chromogenic pNA assay for plasmin, the potent general protease produced by cleavage of plasminogen by either urokinase or tPA. Although urokinase initiates cellular invasiveness by generating plasmin, the additional importance of plasmin in tPA-mediated fibrinolysis dictates that plasmin itself should be free from inhibition by urokinase inhibitors designed as anti-invasiveness agents. […] All other assay conditions, as well as methods of color quantitation, were carried out as described above for the urokinase direct assay.

[4] = target: T4, human high molecular weight urokinase (Homo sapiens, UniProt P00749); assay: Urokinase Direct Assay; conditions: read-out: uPA Direct: percentage of residual urokinase activity relative to inhibitor-free controls; heading: uPA Direct: percentage of residual urokinase activity relative to inhibitor-free controls; inhibitor concentration of 1 mM
T4 construct: human high molecular weight urokinase; purchased American Diagnostica, Greenwich, Conn
Experimental: (i) A direct chromogenic assay in which urokinase cleaves a synthetic tripeptide p-nitroanilide (pNA) urokinase substrate.
Incubations were carried out at 37° C. for approximately 2 hours or until adequate yellow color developed. Color was quantitated by measuring absorbance at 405 nm (A405) using a Titertek Multiskan MCC/340 MK II microtiter plate spectrophotometer.

T3 sequence (P00747 581-810 limits assumed): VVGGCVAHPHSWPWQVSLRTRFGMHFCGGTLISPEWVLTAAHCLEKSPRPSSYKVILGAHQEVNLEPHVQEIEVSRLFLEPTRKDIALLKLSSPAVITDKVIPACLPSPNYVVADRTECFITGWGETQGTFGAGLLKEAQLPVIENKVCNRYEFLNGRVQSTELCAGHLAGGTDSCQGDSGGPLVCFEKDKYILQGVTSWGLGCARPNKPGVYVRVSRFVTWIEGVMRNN
T3 sequence (P00747 97-580 limits assumed): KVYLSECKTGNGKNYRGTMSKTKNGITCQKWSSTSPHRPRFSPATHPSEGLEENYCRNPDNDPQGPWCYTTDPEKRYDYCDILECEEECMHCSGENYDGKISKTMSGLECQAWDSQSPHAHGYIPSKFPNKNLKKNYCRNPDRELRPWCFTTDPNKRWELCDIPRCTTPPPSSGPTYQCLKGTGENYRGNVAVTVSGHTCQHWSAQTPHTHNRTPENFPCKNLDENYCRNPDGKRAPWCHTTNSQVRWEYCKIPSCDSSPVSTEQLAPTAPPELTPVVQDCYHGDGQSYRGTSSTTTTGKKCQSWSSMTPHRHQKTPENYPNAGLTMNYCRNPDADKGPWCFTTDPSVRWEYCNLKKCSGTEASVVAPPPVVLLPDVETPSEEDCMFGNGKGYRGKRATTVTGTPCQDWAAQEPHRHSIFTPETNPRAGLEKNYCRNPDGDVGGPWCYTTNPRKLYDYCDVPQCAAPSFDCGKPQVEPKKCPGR
T2 sequence (P00750 311-562 limits assumed): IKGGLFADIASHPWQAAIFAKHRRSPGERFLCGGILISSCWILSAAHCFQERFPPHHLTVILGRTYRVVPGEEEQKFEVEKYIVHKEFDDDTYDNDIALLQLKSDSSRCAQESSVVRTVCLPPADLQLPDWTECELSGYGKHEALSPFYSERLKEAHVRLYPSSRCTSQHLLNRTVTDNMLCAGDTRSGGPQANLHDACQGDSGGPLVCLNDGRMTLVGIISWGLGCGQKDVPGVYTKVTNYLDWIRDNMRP
T2 sequence (P00750 36-310 limits assumed): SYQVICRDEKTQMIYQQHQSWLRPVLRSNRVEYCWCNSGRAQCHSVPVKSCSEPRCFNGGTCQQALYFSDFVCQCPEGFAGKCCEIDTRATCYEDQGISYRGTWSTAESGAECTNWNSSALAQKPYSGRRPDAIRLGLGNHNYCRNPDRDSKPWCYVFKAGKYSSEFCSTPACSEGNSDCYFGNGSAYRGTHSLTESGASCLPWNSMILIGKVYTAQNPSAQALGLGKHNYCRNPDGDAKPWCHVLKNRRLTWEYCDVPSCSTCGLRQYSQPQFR

SMILES | IC50 [1] | tPA/UPA ratio [2] | IC50 [2] [µM] | PLM/uPA ratio [3] | IC50 [3] [µM] | inhibition at 1000 µM [3] [%] | residual urokinase activity at 1000 µM [4] [%] | inhibition at 1000 µM ([2]; 1 mM inhibitor, read-out: tPA activity observed relative to inhibitor-free controls) [%] | inhibition at 1000 µM ([3]; 1 mM inhibitor) [%]
CCc1cccc2sc(C(=N)N)cc12.Cl [Compound 7, 4-Ethylbenzo[b]thiophene-2-carboxamidine hydrochloride] | 700 nM | 263 | 184 | 610 | 427 | – | – | – | –
CCCc1cccc2sc(C(=N)N)cc12.Cl [Compound 9, 4-Propylbenzo[b]thiophene-2-carboxamidine hydrochloride] | 660 nM | 250 | 165 | 902 | 595 | – | – | – | –
CCCCc1cccc2sc(C(=N)N)cc12.Cl [Compound 10, 4-Butylbenzo[b]thiophene-2-carboxamidine hydrochloride] | 420 nM | 352 | 148 | 907 | 381 | – | – | – | –
CC(C)CCc1cccc2sc(C(=N)N)cc12.Cl [Compound 12, 4-(3-Methylbutyl)benzo[b]thiophene-2-carboxamidine hydrochloride] | 340 nM | 279 | 95 | 847 | 288 | – | – | – | –
CCCCCCc1cccc2sc(C(=N)N)cc12.Cl [Compound 13, 4-(Hexyl)benzo[b]thiophene-2-carboxamidine hydrochloride] | 420 nM | 214 | 90 | 464 | 195 | – | – | – | –
C=Cc1cccc2sc(C(=N)N)cc12.Cl [Compound 17, 4-Ethenylbenzo[b]thiophene-2-carboxamidine hydrochloride] | 1400 nM | 6.3 | 8.6 | 42 | 57 | – | – | – | –
C=CCc1cccc2sc(C(=N)N)cc12.Cl [Compound 19, 4-(Prop-2-enyl)benzo[b] thiophene-2-carboxamidine hydrochloride] | 450 nM | 127 | 57 | 1120 | 505 | – | – | – | –
CC(C)/C=C/c1cccc2sc(C(=N)N)cc12.Cl [Compound 23, 4-(E-3-Methylbut-1-enyl)benzo[b]thiophene-2-carboxamidine hydrochloride] | 130 nM | 315 | 41 | 4838 | 629 | – | – | – | –
CCC/C=C/c1cccc2sc(C(=N)N)cc12.Cl [Compound 25, 4-(E-Pent-1-enyl)benzo[b]thiophene-2-carboxamidine hydrochloride] | 140 nM | 343 | 48 | 1471 | 206 | – | – | – | –
CCCCC=Cc1cccc2sc(C(=N)N)cc12 [Compound 29, 4-(E/Z-Hex-1-enyl)benzo[b]thiophene-2-carboxamidine hydrochloride] | 340 nM | 250 | 85 | 718 | 244 | – | – | – | –
C#Cc1cccc2sc(C(=N)N)cc12.Cl [Compound 39, 4-Ethynylbenzo[b]thiophene-2-carboxamidine hydrochloride] | 660 nM | 436 | 288 | 661 | 704 | – | – | – | –
Cl.N=C(N)c1cc2c(-c3ccccc3)cccc2s1 [Compound 44, 4-Phenylbenzo[b]thiophene-2-carboxamidine hydrochloride] | 1100 nM | 58 | 64 | 800 | 881 | – | – | – | –
Cl.Cl.N=C(N)c1cc2c(-c3cccnc3)cccc2s1 [Compound 48, 4-(Pyrid-3-yl)benzo[b]thiophene-2-carboxamidine bis-hydrochloride] | 560 nM | 152 | 85 | 609 | 341 | – | – | – | –
Cl.N=C(N)c1cc2c(-c3ccco3)cccc2s1 [Compound 49, 4-(Furan-2-yl)benzo[b]thiophene-2-carboxamidine hydrochloride] | 360 nM | 53 | 19 | 1000 | 360 | – | – | – | –
Cl.N=C(N)c1cc2c(-c3cccs3)cccc2s1 [Compound 50, 4-(Thien-2-yl)benzo[b]thiophene-2-carboxamidine hydrochloride] | 500 nM | 56 | 28 | 762 | 381 | – | – | – | –
Cl.N=C(N)c1cc2c(-c3cc4ccccc4o3)cccc2s1 [Compound 51, 4-(Benzo[b]furan-2-yl)benzo[b]thiophene-2-carboxamidine hydrochloride] | 560 nM | 200 | 112 | 1330 | 745 | – | – | – | –
N=C(N)c1ccc(-c2ccc(-c3cccc4sc(C(=N)N)cc34)o2)cc1 [Compound 53, 4-[5-(4-carboxamidinophenyl)fur-2-yl]benzo[b]thiophene-2-carboxamidine bis-hydrochloride] | 92 nM | 45 | 4.1 | 511 | 47 | – | – | – | –
Cl.N=C(N)c1cc2c(CO)cccc2s1 [Compound 56, 4-(Hydroxymethyl)benzo[b]thiophene-2-carboxamidine hydrochloride] | 880 nM | 640 | 563 | ≥ 1500 | – | 67 | – | – | –
CSc1cccc2sc(C(=N)N)cc12.Cl [Compound 58, 4-(Methylthio)benzo[b]thiophene-2-carboxamidine hydrochloride] | 560 nM | 413 | 231 | 954 | 534 | – | – | – | –
N=C(N)c1cc2c(C=Cc3ccccc3)cccc2s1 [Compound 63, 4-(E/Z-2-Phenylethenyl)benzo[b]thiophene-2-carboxamidine hydrochloride] | 140 nM | 86 | 12 | 1250 | 175 | – | – | – | –
N=C(N)c1cc2c(C=Cc3ccc4c(c3)OCCO4)cccc2s1 [Compound 66, 4-[E/Z,2-(Benzo-1,4-dioxan-6-yl)ethenyl]benzo[b]thiophene-2-carboxamidine hydrochloride] | 120 nM and 38 nM | 395 | 15 | 4580 | 174 | – | – | – | –
Cl.N=C(N)c1cc2c(/C=C/c3ccco3)cccc2s1 [Compound 67, 4-[E-2-(Furan-2-yl)ethenyl]benzo[b]thiophene-2-carboxamidine hydrochloride] | 195 nM | 133 | 26 | 1000 | 195 | – | – | – | –
N=C(N)c1cc2c(/C=C/c3cccc4sc(C(=N)N)cc34)cccc2s1 [Compound 73, 4-[E-2-(2-Carboxamidinobenzothien-4-yl)ethenyl]benzo[b]thiophene-2-carboxamidine bis-hydrochloride] | 170 nM | 15.9 | 2.7 | 147 | 25 | – | – | – | –
Cl.N=C(N)c1cc2c(C#Cc3ccco3)cccc2s1 [Compound 75, 4-[(Furan-2-yl)ethynyl]benzo[b]thiophene-2-carboxamidine hydrochloride] | 170 nM | 194 | 33 | 1694 | 288 | – | – | – | –
Cl.N=C(N)c1cc2c(C#Cc3ccc4c(c3)OCO4)cccc2s1 [Compound 77, 4-[(Benzo-1,3-dioxolan-5-yl)ethynyl]benzo[b]thiophene-2-carboxamidine hydrochloride] | 59 nM | 142 | 8.4 | ≈ 4240 | ~250 | – | – | – | –
N=C(N)c1cc2cc(-c3cc4ccccc4s3)ccc2s1 [Compound 128, 5-(Benzo[b]thien-2-yl)benzo[b]thiophene-2-carboxamidine hydrochloride] | 940 nM | – | – | – | – | – | – | – | –
N=C(N)c1ccc(/C=C/c2cc3ccc4sc(C(=N)N)cc4c3s2)cc1 [Compound 209, 5-[E-2-(4-Carboxamidinophenyl)ethenyl]thieno[4,5-b]benzo[b]thiophene-2-carboxamidine bis-hydrochloride] | 270 nM | – | – | – | – | – | – | – | –
Cl.N=C(N)c1cc2ccsc2s1 [Compound 321, Thieno[2,3-b]thiophene-2-carboxamidine hydrochloride] | – | ≥ 500 | – | ≥ 1000 | – | – | 4.1 | 74 | 88

Reference: patent US5340833A, “Urokinase inhibitors” (Eisai Co., Ltd., priority 1992, dated 1994)
